Results published in PubChem BioAssay AID330 (DTP/NCI, 2004).
Where “and” joins values, the source holds several entries; their conditions need not be identical. Identical values can stand only once. Inconclusive results and toxic doses are left out.

Test system: P388 leukemia ip, CD2F1 mice, survival T/C
Assay: NCI In Vivo Anticancer Drug Screen. Data for tumor model P388 Leukemia (intraperitoneal) in CD2F1 (CDF1) mice
Conditions: endpoint: median survival time, higher = longer survival
In short: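 Mice carrying the transplanted tumor received test compound or vehicle. Survival was recorded in each group, and the value is the treated-group measurement divided by that of the vehicle-treated control group.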

[1] = dose: 50.0 mg/kg/injection, schedule: Q01DX009 (ip), vehicle: Klucel (hydroxypropylcellulose) (HPC)
[2] = dose: 100.0 mg/kg/injection, schedule: Q01DX009 (ip), vehicle: Klucel (hydroxypropylcellulose) (HPC)
[3] = dose: 200.0 mg/kg/injection, schedule: Q01DX009 (ip), vehicle: Klucel (hydroxypropylcellulose) (HPC)
[4] = dose: 50.0 mg/kg/injection, schedule: Q01DX009 (ip), vehicle: saline with Tween-80
[5] = dose: 100.0 mg/kg/injection, schedule: Q01DX009 (ip), vehicle: saline with Tween-80
[6] = dose: 50.0 mg/kg/injection, schedule: Q01DX005 (ip), vehicle: saline with Tween-80
[7] = dose: 60.0 mg/kg/injection, schedule: Q01DX005 (ip), vehicle: saline with Tween-80
[8] = dose: 120.0 mg/kg/injection, schedule: Q01DX005 (ip), vehicle: saline with Tween-80
[9] = dose: 240.0 mg/kg/injection, schedule: Q01DX005 (ip), vehicle: saline with Tween-80

CN1C(=O)[C@@H]2N(N(C)C1=O)[C@@]1(Br)C(=O)NC(=O)[C@@]21Br
T/C (dose: 60.0 mg/kg/injection, schedule: Q01DX005 (ip), vehicle: Klucel (hydroxypropylcellulose) (HPC)): 97 % of control
T/C (dose: 120.0 mg/kg/injection, schedule: Q01DX005 (ip), vehicle: Klucel (hydroxypropylcellulose) (HPC)): 100 % of control
T/C (dose: 240.0 mg/kg/injection, schedule: Q01DX005 (ip), vehicle: Klucel (hydroxypropylcellulose) (HPC)): 91 % of control

CC(C)(C)C1CCS(=O)(=O)CC1.[Cl][Hg][Cl]
T/C (dose: 0.25 mg/kg/injection, schedule: Q01DX009 (ip), vehicle: saline): 109 % of control
T/C (dose: 0.5 mg/kg/injection, schedule: Q01DX009 (ip), vehicle: saline): 95 % of control
T/C (dose: 1.0 mg/kg/injection, schedule: Q01DX009 (ip), vehicle: saline): 90 % of control

O=NNc1cnccn1
T/C (dose: 1.56 mg/kg/injection, schedule: Q01DX009 (ip), vehicle: water): 100 % of control
T/C (dose: 3.12 mg/kg/injection, schedule: Q01DX009 (ip), vehicle: water): 109 % of control and 100 % of control
T/C (dose: 6.25 mg/kg/injection, schedule: Q01DX009 (ip), vehicle: water): 110 % of control and 112 % of control and 97 % of control
T/C (dose: 12.5 mg/kg/injection, schedule: Q01DX009 (ip), vehicle: water): 116 % of control and 122 % of control
T/C (dose: 25.0 mg/kg/injection, schedule: Q01DX009 (ip), vehicle: water): 150 % of control
T/C (dose: 25.3 mg/kg/injection, schedule: Q01DX009 (ip), vehicle: other): 161 % of control
T/C (dose: 25.3 mg/kg/injection, schedule: Q01DX009 (ip), vehicle: water): 170 % of control
T/C (dose: 37.5 mg/kg/injection, schedule: Q01DX009 (ip), vehicle: water): 224 % of control and 245 % of control and 271 % of control
T/C (dose: 38.0 mg/kg/injection, schedule: Q01DX009 (ip), vehicle: other): 225 % of control
T/C (dose: 50.0 mg/kg/injection, schedule: Q01DX009 (ip), vehicle: water): 118 % of control [middle of 5 runs]
T/C (dose: 57.0 mg/kg/injection, schedule: Q01DX009 (ip), vehicle: water): 112 % of control

Cc1ccc(C2C(C#N)C(=O)NC(=O)C2C#N)cc1 (stereo unspecified)
T/C [1]: 100 % of control
T/C [2]: 108 % of control
T/C [3]: 99 % of control

CN1C2CCC1CC(=NOS(=O)(=O)CC13CCC(CC1=O)C3)C2 (stereo unspecified)
T/C (dose: 50.0 mg/kg/injection, schedule: Q01DX005 (ip), vehicle: saline): 100 % of control
T/C (dose: 100.0 mg/kg/injection, schedule: Q01DX005 (ip), vehicle: saline): 103 % of control
T/C (dose: 200.0 mg/kg/injection, schedule: Q01DX005 (ip), vehicle: saline): 115 % of control

CC1SC(N)=NN=C1c1c(O)c2ccccc2oc1=O (stereo unspecified)
T/C (dose: 100.0 mg/kg/injection, schedule: Q04DX002 (ip), vehicle: Klucel (hydroxypropylcellulose) (HPC)): 103 % of control
T/C (dose: 200.0 mg/kg/injection, schedule: Q04DX002 (ip), vehicle: Klucel (hydroxypropylcellulose) (HPC)): 98 % of control
T/C (dose: 400.0 mg/kg/injection, schedule: Q04DX002 (ip), vehicle: Klucel (hydroxypropylcellulose) (HPC)): 97 % of control

Cc1ccnc(NC(N)=O)n1
T/C [4]: 103 % of control
T/C [5]: 103 % of control
T/C (dose: 200.0 mg/kg/injection, schedule: Q01DX009 (ip), vehicle: saline with Tween-80): 101 % of control

CC1(c2ccc(S(=O)(=O)c3ccccc3)cc2)OC(=O)C=CC1=O (stereo unspecified)
T/C (dose: 6.25 mg/kg/injection, schedule: Q01DX005 (ip), vehicle: saline with Tween-80): 89 % of control
T/C (dose: 12.5 mg/kg/injection, schedule: Q01DX005 (ip), vehicle: saline with Tween-80): 89 % of control
T/C (dose: 25.0 mg/kg/injection, schedule: Q01DX005 (ip), vehicle: saline with Tween-80): 115 % of control
T/C [6]: 120 % of control

CC(C)(C)OC(=O)NCC(=O)ON1C(=O)CCC1=O
T/C [4]: 118 % of control
T/C [5]: 102 % of control

CCOC(=O)COc1cc2c(cc1Cc1ccc(OC)cc1)OCO2
T/C [6]: 97 % of control
T/C (dose: 100.0 mg/kg/injection, schedule: Q01DX005 (ip), vehicle: saline with Tween-80): 92 % of control

Nc1nc2c(C(=O)N3CCCC3)nnn2c2cccc(Cl)c12
T/C [7]: 107 % of control
T/C [8]: 106 % of control
T/C [9]: 106 % of control

C=C1CC(O)C2C(C[Se]c3ccccc3)C(=O)O[C@@H]2C2C(=C)[C@@H](O)CC12 (stereo partly specified)
T/C [7]: 96 % of control
T/C [8]: 100 % of control
T/C [9]: 99 % of control

O=C1Nc2ccccc2/C1=N/N=C/c1ccc(Cl)cc1Cl
T/C [1]: 100 % of control
T/C [2]: 88 % of control and 90 % of control
T/C [3]: 100 % of control and 98 % of control
